Values of other authors, collected in US20260199246A1, “LUMATEPERONE PHARMACEUTICAL COMPOSITION, AND LONG-ACTING MICROSPHERE SUSTAINED-RELEASE FORMULATION AND PREPARATION METHOD THEREFOR” (SICHUAN KELUN PHARMACEUTICAL RESEARCH INSTITUTE CO., LTD., priority 2022, published 2026).

Conditions: compared with risperidone

reduction of the risk of weight gain: 13%
SMILES: CN1CCN2c3c(cccc31)[C@@H]1CN(CCCC(=O)c3ccc(F)cc3)CC[C@@H]12 [Lumiperone, Lumateperone]
